Measurements as given in patent publication US5977150A, “Amino acid derivatives of diaryl 1,3,4-oxadiazolone” (Bristol-Myers Squibb Company, priority 1999, dated 1999).

What was measured:
[1] = tested on: non-BK native currents in the oocytes; assay: Effect on non-BK (IBTX-insensitive) native currents in Xenopus oocytes under voltage clamp; type: cell-based; details: at the tested concentration (1 μM)
Protocol: (§1) The ability of the compound of Example 1 to open BK channels and increase whole-cell outward (K^+) BK-mediated currents was assessed under voltage-clamp conditions by determining their ability to increase cloned mammalian (mSlo or hSlo) BK-mediated outward current heterologously expressed in Xenopus oocytes [Butler, A., et al., Science, 261, pp. 221-224 (1993); and Dworetzky, S. I., et al., Mol. Brain Res., 27, pp.189-193 (1994)]. The two BK constructs employed represent nearly structurally identical homologous proteins, and have proven to be pharmacologically identical in our tests. To isolate BK current from native (background, non-BK) current, the specific and potent BK channel-blocking toxin iberiotoxin (IBTX) [Galvez, A., et al., J. Biol. Chem, 265, pp. 11083-11090 (1990)] was employed at a supramaximal concentration (50 nM). The relative contribution of BK channels current to total outward current was determined by subtraction of the current remaining in the presence of IBTX (non-BK current) from the current profiles obtained in all other experimental conditions (control, drug, and wash). […]

[2] = tested on: cloned mammalian (mSlo or hSlo) BK; assay: Two-electrode voltage clamp of cloned BK-mediated outward current expressed in Xenopus oocytes; type: cell-based; details: 1 μM; at least 5 oocytes; IBTX 50 nM used to isolate BK current
Protocol: as §1

cortical infarct volume = assay: Focal stroke model: permanent MCA and CCA occlusion with temporary right CCA occlusion; type: in vivo; details: 10 μg/kg i.v. single bolus two hours after MCA occlusion; infarct measured 24 hours after MCAO; Wistar rat
Protocol: To determine the ability of the compounds of the present invention to reduce cell loss resulting from neuronal ischemia, a standard focal cerebral ischemia is induced by permanent occlusion of the left middle cerebral artery (MCA) and common carotid artery (CCA) with one hour occlusion of the right CCA in the Wistar rat. The surgeries are performed using the sub-temporal approach of A. Tamura, et al., J. Cereb. Blood Flow Metab., 1, pp. 53-60, (1981) and its modifications [K. Osborne, et al., J. Neurol Neurosurg. Psychiatry, 50, pp. 402-410 (1987) and S. Menzies, et al., Neurosurgery, 31, pp. 100-107, (1992).]
The compound of Example 1 was evaluated in the focal stroke model involving permanent occlusion of the left MCA (MCAO) and CCA (CCAO) and temporary occlusion of the right CCA in the Wistar rat. This procedure results in a reliably large neocortical infarct volume that is measured by means of vital dye exclusion in serial slices through the brain 24 hours after MCAO. In the present test, compounds were administered using an i.v. or i.p. route of administration two hours after occlusion.

[3] = Rapid screen of prodrug hydrolysis and release of the drug in plasma; type: in vitro ADME; details: fresh rat plasma, 37° C., 10 μg/mL from a 1 mg/mL PEG-400 stock, analysis 5 minutes after incubation, HPLC
Protocol: A rapid screen to determine the ability of prodrugs to hydrolyze and release the drug (compound of Example 1) is conducted as follows. A 1 mg/mL stock solution of the prodrug is prepared in distilled water or acetonitrile or PEG-400. Plasma from freshly collected rat or human blood is used in this assay. To 1 mL of plasma at 37° C. was added 10 μL of stock solution of prodrug and mixed gently. Immediately after the mixing, 100 μL of plasma was removed and quenched with 300 μL of acetontrile (Zero time sample). Samples were also obtained at 30 minutes and quenched immediately. The quenched samples were centrifuged to obtain a clear supernatant for analysis. The stock solution, T=0 and T=30 samples were analyzed by a HPLC assay that separates the drug from the prodrug. Based on the relative peak areas of prodrug and drug in these samples, different prodrugs are characterized as fast, moderate and slow release agents. For example, in this model, the compound of Example 9 was dissolved in PEG-400 at a concentration of 1 mg/mL and incubated at 10 μg/mL in fresh rat plasma at 37° C.

## O=c1oc(-c2ccc(C(F)(F)F)cc2)nn1Cc1cc(Cl)ccc1O [Example 1, 3-[(5-Chloro-2-hydroxyphenyl)methyl]-5-[4-(trifluoromethyl)phenyl]-1,3,4-oxadiazol-2(3H)-one]
[1]
  effect on non-BK native currents in the oocytes: did not effect non-BK native currents
[2]
  BK current, % of control of IBTX-sensitive current: 126 % of control
Cortical infarct volume
  reduction of cortical infarct volume vs vehicle-treated (water) control: about 18%

## CN[C@@H](CC(C)C)C(=O)Oc1ccc(Cl)cc1Cn1nc(-c2ccc(C(F)(F)F)cc2)oc1=O [Example 9, 3-[(5-Chloro-2-hydroxyphenyl)methyl]-5-[4-(trifluoromethyl)phenyl]-1,3,4-oxadiazol-2(3H)-one, N-Methyl (L)-Leucine ester]
[3]
  conversion of prodrug to drug (compound of Example 1) in plasma: conversion of the compound of Example 9 to the compound of Example 1
